Assay results: ChEMBL document CHEMBL3994585, “Synthesis of α-santonin derivatives for diminutive effect on T and B-cell proliferation and their structure activity relationships” (Eur J Med Chem, 2017)

Experiments:
T-cell [1] = experiment: Immunostimulant activity in Balb/c mouse T cells assessed as ConA-induced cell proliferation at 100 uM after 48 hrs by MTT assay relative to control; format: ADME, cell-based
T-cell [2] = experiment: Immunosuppressive activity in Balb/c mouse T cells assessed as ConA-induced cell proliferation at 10 uM after 48 hrs by MTT assay relative to control; format: functional
T-cell [3] = experiment: Immunostimulant activity in Balb/c mouse T cells assessed as ConA-induced cell proliferation at 1 uM after 48 hrs by MTT assay relative to control; format: ADME, cell-based
B-cell [4] = experiment: Effect on LPS-induced Balb/c mouse B cell proliferation at 100 uM after 48 hrs by MTT assay relative to control; format: functional
B-cell [5] = experiment: Immunosuppressive activity in Balb/c mouse B cells assessed as LPS-induced cell proliferation at 10 uM after 48 hrs by MTT assay relative to control; format: functional
B-cell [6] = experiment: Immunosuppressive activity in Balb/c mouse B cells assessed as LPS-induced cell proliferation at 1 uM after 48 hrs by MTT assay relative to control; format: functional
T-cell [7] = experiment: Cytotoxicity against Balb/c mouse T cells assessed as reduction in cell proliferation at 100 uM after 48 hrs by MTT assay; format: cell-based
T-cell [8] = experiment: Cytotoxicity against Balb/c mouse T cells assessed as reduction in cell proliferation at 10 uM after 48 hrs by MTT assay; format: cell-based
T-cell [9] = experiment: Cytotoxicity against Balb/c mouse T cells assessed as reduction in cell proliferation at 1 uM after 48 hrs by MTT assay; format: cell-based
B-cell [10] = experiment: Cytotoxicity against Balb/c mouse B cells assessed as reduction in cell proliferation at 100 uM after 48 hrs by MTT assay; format: cell-based
B-cell [11] = experiment: Cytotoxicity against Balb/c mouse B cells assessed as reduction in cell proliferation at 10 uM after 48 hrs by MTT assay; format: cell-based
B-cell [12] = experiment: Cytotoxicity against Balb/c mouse B cells assessed as reduction in cell proliferation at 1 uM after 48 hrs by MTT assay; format: cell-based

`Cc1c(O)c([N+](=O)[O-])c(C)c2c1[C@@H]1OC(=O)[C@@H](C)[C@@H]1CC2` was tested, and the Activity (T-cell [1]) was 36.08%, the Activity (T-cell [2]) was -1.03% and the Activity (T-cell [3]) was 13.4%. The Activity (B-cell [4]) was 0%, the Activity (B-cell [5]) was -30.08% and the Activity (B-cell [6]) was -10.61%. For the same molecule, the Activity (T-cell [7]) was “Toxic”, the Activity (T-cell [8]) was “Toxic” and the Activity (T-cell [9]) was “Toxic”. The Activity (B-cell [10]) was “Toxic”, the Activity (B-cell [11]) was “Toxic” and the Activity (B-cell [12]) was “Toxic”.
